Data reported in paper PMC7878868, “Mechanisms of feedback inhibition and sequential firing of active sites in plant aspartate transcarbamoylase” (Nature Communications, 2021).
Changes are numbered by the printed parent chain. Values joined by “and” are separate entries in the source; they are usually repeats but may differ in a detail not shown here. Identical values can stand only once. Like-named read-outs stand apart in the source and are kept apart here.

Tests used:
atATC WT = target: T1, atATC WT (Arabidopsis thaliana, UniProt P49077); assay: Colorimetric ATC activity assay, atATC WT; type: biochemical; conditions: for Activity WT: 10 mM Asp
T1 construct: 2.6 kDa fusion tag (modified pET28a); made in house; host or cells: E. coli BLR(DE3)-pLysS
T1 sequence (P49077 82-390): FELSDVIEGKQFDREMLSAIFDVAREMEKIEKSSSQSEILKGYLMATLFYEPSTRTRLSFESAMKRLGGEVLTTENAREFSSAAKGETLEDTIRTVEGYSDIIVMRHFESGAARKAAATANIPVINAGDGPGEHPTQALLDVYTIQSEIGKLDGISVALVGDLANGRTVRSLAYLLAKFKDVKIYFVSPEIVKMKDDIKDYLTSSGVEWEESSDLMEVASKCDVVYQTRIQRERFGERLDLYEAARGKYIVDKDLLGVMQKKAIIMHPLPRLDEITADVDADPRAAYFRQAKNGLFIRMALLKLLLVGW
Method: (§1) Activity was assayed by a colorimetric method[64] adapted to a 96-well plate format. […] Reagent B is light sensitive and was stored at 4 °C in the dark. The color reagents were gently mixed and stored at 4 °C in the dark until added to the sample. Reaction tubes were closed, boiled at 95 °C for 15 min, and kept in the dark for 30 min before measuring the absorbance at 450 nm in a Tecan infinite m200 microplate reader (Tecan). […] Data analysis was done with GraphPad. […] Protein concentration in the assay was 0.3 µM (0.01 mg ml^−1) both for WT and F161A.

atATC-F161A [1] = target: T2, atATC-F161A (Arabidopsis thaliana, UniProt P49077, F161A); assay: Colorimetric ATC activity assay, atATC F161A; type: biochemical; conditions: for Activity F161A: 10 mM Asp
T2 construct: 2.6 kDa fusion tag (modified pET28a); made in house; host or cells: E. coli BLR(DE3)-pLysS
T2 sequence (P49077 82-390 F161A): T1 sequence (P49077 82-390) with F80A
Method: as §1

atATC-F161A [2] = target: T2, atATC-F161A; assay: biochemical; type: binding
Method: (§2) Experiments were performed in an Auto-iTC200 calorimeter (MicroCal, Malvern-Panalytical) at 25 °C with a 0.2 ml reaction cell and 30–40 µM protein solution (in protomer units) in the cell. […] All solutions were in GF buffer and degassed and mixed in the cell by stirring at 750 rpm. Data analysis was performed with Origin 7 (OriginLab) using a general three-site cooperative and a non-cooperative binding model, restricted to one or two ligand binding sites when convenient[24],[62],[63]. Non-linear least-squares regression analysis was employed to estimate dissociation constants for the interaction of the different ligands with ATC.

[3] = target: T3, atATC (Arabidopsis ATC aa 82–390) WT (Arabidopsis thaliana, UniProt P49077); assay: Isothermal titration calorimetry (ITC), atATC WT; type: binding; conditions: ITC; for Kd: 25 °C
T3 construct: 2.6 kDa fusion tag (modified pET28a); made in house; host or cells: E. coli BLR(DE3)-pLysS
T3 sequence (P49077 82-390): T1 sequence (P49077 82-390)
Method: as §2

atATC WT:PALA = target: T4, atATC WT:PALA (Arabidopsis thaliana, UniProt P49077); assay: ITC, atATC WT prebound to PALA (WT:PALA); type: binding; conditions: for N, number of binding sites per protein trimer according to the ligand binding model / -TΔS Site 2 / ΔG Site 2 / ΔH Site 2 / -TΔS Site 3 / ΔG Site 3 / ΔH Site 3: ITC, protein prebound to PALA; for Kd: read-out: KD Site 2
T4 construct: 2.6 kDa fusion tag (modified pET28a); made in house; host or cells: E. coli BLR(DE3)-pLysS
T4 sequence (P49077 82-390): T1 sequence (P49077 82-390)
Method: as §2

N[C@@H](CC(=O)O)C(=O)O [Asp, aspartate]
K0.5 Asp (atATC WT; WT, Asp variable, 5 mM CP): 0.94 mM and 0.94 ± 0.10 mM | K0.5 Asp (atATC-F161A [1]; F161A, Asp variable, 5 mM CP): 3.20 ± 1.03 mM

NC(=O)OP(=O)(O)O [CP, carbamoyl phosphate]
N, number of binding sites per protein trimer according to the ligand binding model (atATC-F161A [2]; ITC, F161A): 3 | fold higher affinity of F161A than WT (atATC-F161A [2]; ITC, F161A versus WT): ~ 100 fold | -TΔS Site 1 (atATC-F161A [2]; ITC, F161A, site 1): -2.4 kcal/mol | ΔG Site 1 (atATC-F161A [2]; ITC, F161A, site 1): -8.4 kcal/mol | ΔH Site 1 (atATC-F161A [2]; ITC, F161A, site 1): -6.0 kcal/mol | -TΔS Site 2 (atATC-F161A [2]; ITC, F161A, site 2): -2.4 kcal/mol | ΔG Site 2 (atATC-F161A [2]; ITC, F161A, site 2): -8.4 kcal/mol | ΔH Site 2 (atATC-F161A [2]; ITC, F161A, site 2): -6.0 kcal/mol | -TΔS Site 3 (atATC-F161A [2]; ITC, F161A, site 3): -2.4 kcal/mol | ΔG Site 3 (atATC-F161A [2]; ITC, F161A, site 3): -8.4 kcal/mol | ΔH Site 3 (atATC-F161A [2]; ITC, F161A, site 3): -6.0 kcal/mol | Kd (atATC-F161A [2]; KD Site 1, ITC, F161A, site 1): 730 nM | Kd (atATC-F161A [2]; KD Site 2, ITC, F161A, site 2): 730 nM | Kd (atATC-F161A [2]; KD Site 3, ITC, F161A, site 3): 730 nM | Kd (atATC-F161A [2]; KD, ITC, F161A): 700 nM | N, number of binding sites per protein trimer according to the ligand binding model [3]: 3 | Kd ([3]; site 1, read-out: KD Site 1): 80000 nM | Kd ([3]; site 2, read-out: KD Site 2): 80000 nM | Kd ([3]; site 3, read-out: KD Site 3): 80000 nM | -TΔS Site 1 [3]: -2.6 kcal/mol | ΔG Site 1 [3]: -5.6 kcal/mol | ΔH Site 1 [3]: -3.0 kcal/mol | -TΔS Site 2 [3]: -2.6 kcal/mol | ΔG Site 2 [3]: -5.6 kcal/mol | ΔH Site 2 [3]: -3.0 kcal/mol | -TΔS Site 3 ([3]; site 3): -2.6 kcal/mol | ΔG Site 3 ([3]; site 3): -5.6 kcal/mol | Hill-coefficient h of CP initial-rate plot (atATC WT; WT, CP as variable ligand, in the presence of UMP): 2.2 | N, number of binding sites per protein trimer according to the ligand binding model (atATC WT:PALA): 2 | -TΔS Site 2 (atATC WT:PALA): 0.4 kcal/mol | ΔG Site 2 (atATC WT:PALA): -5.3 kcal/mol | ΔH Site 2 (atATC WT:PALA): -5.7 kcal/mol | -TΔS Site 3 (atATC WT:PALA): 0.4 kcal/mol | ΔG Site 3 (atATC WT:PALA): -5.3 kcal/mol | ΔH Site 3 (atATC WT:PALA): -5.7 kcal/mol | Kd (atATC WT:PALA): 140 µM

O=c1ccn([C@@H]2O[C@H](COP(=O)(O)O)[C@@H](O)[C@H]2O)c(=O)[nH]1 [UMP, uridine 5-monophosphate]
binding detected by ITC (atATC-F161A [2]; F161A, 70 µM UMP at most, 30-40 µM protein): failed to detect the binding | N, number of binding sites per protein trimer according to the ligand binding model [3]: 3 | fold higher affinity for UMP than for CP [3]: ~400 fold | fold higher affinity for UMP than for the transition-state analog (PALA) [3]: 3 fold | Kd ([3]; site 1, read-out: KD Site 1): 210 nM and 200 nM | Kd ([3]; site 2, read-out: KD Site 2): 2300 nM | Kd ([3]; site 3, read-out: KD Site 3): 1600 nM | fold reduction of the affinity of the other subunits after binding to the first site ([3]; negative cooperativity): 10 fold | -TΔS Site 1 [3]: -6.3 kcal/mol | ΔG Site 1 [3]: -9.1 kcal/mol | ΔH Site 1 [3]: -2.8 kcal/mol | -TΔS Site 2 [3]: -8.9 kcal/mol | ΔG Site 2 [3]: -7.7 kcal/mol | ΔH Site 2 [3]: 1.2 kcal/mol | -TΔS Site 3 ([3]; site 3): -7.4 kcal/mol | ΔG Site 3 ([3]; site 3): -7.9 kcal/mol | ΔH Site 3 ([3]; site 3): -0.5 kcal/mol | Activity WT (atATC WT; 0.1 mM UMP, [CP] 0.31 mM): 4.11 nmol / min μg and 7.63 nmol / min μg and 5.39 nmol / min μg | Activity WT (atATC WT; 0.1 mM UMP, [CP] 1.25 mM): 41.20 nmol / min μg and 48.03 nmol / min μg and 40.64 nmol / min μg | Activity WT (atATC WT; 0.1 mM UMP, [CP] 2.50 mM): 66.92 nmol / min μg and 70.05 nmol / min μg and 71.44 nmol / min μg | Activity WT (atATC WT; 0.1 mM UMP, [CP] 3.00 mM): 72.17 nmol / min μg and 74.13 nmol / min μg and 71.50 nmol / min μg | Activity WT (atATC WT; 0.1 mM UMP, [CP] 4.00 mM): 77.07 nmol / min μg and 76.02 nmol / min μg and 75.78 nmol / min μg | Activity WT (atATC WT; 0.1 mM UMP, [CP] 5.00 mM): 76.47 nmol / min μg and 78.06 nmol / min μg and 76.19 nmol / min μg | Activity WT (atATC WT; 0.4 mM UMP, [CP] 1.25 mM): 9.87 nmol / min μg and 11.15 nmol / min μg and 12.99 nmol / min μg | Activity WT (atATC WT; 0.4 mM UMP, [CP] 2.50 mM): 28.61 nmol / min μg and 31.67 nmol / min μg and 35.52 nmol / min μg | Activity WT (atATC WT; 0.4 mM UMP, [CP] 3.00 mM): 41.63 nmol / min μg and 37.33 nmol / min μg and 40.36 nmol / min μg | Activity WT (atATC WT; 0.4 mM UMP, [CP] 4.00 mM): 48.76 nmol / min μg and 50.91 nmol / min μg and 53.68 nmol / min μg | Activity WT (atATC WT; 0.4 mM UMP, [CP] 5.00 mM): 58.15 nmol / min μg and 59.40 nmol / min μg and 57.60 nmol / min μg | Activity F161A (atATC-F161A [1]; 0.2 mM UMP, [CP] 0.31 mM): 31.06 nmol / min μg and 26.77 nmol / min μg and 21.39 nmol / min μg | Activity F161A (atATC-F161A [1]; 0.2 mM UMP, [CP] 0.63 mM): 62.38 nmol / min μg and 46.00 nmol / min μg and 48.44 nmol / min μg | Activity F161A (atATC-F161A [1]; 0.2 mM UMP, [CP] 1.25 mM): 61.36 nmol / min μg and 58.95 nmol / min μg and 63.80 nmol / min μg | Activity F161A (atATC-F161A [1]; 0.2 mM UMP, [CP] 2.50 mM): 64.72 nmol / min μg and 56.89 nmol / min μg and 56.14 nmol / min μg | Activity F161A (atATC-F161A [1]; 0.4 mM UMP, [CP] 0.31 mM): 27.07 nmol / min μg and 21.22 nmol / min μg and 30.75 nmol / min μg | Activity F161A (atATC-F161A [1]; 0.4 mM UMP, [CP] 0.63 mM): 50.59 nmol / min μg and 53.67 nmol / min μg and 49.88 nmol / min μg | Activity F161A (atATC-F161A [1]; 0.4 mM UMP, [CP] 1.25 mM): 68.18 nmol / min μg and 58.61 nmol / min μg and 62.41 nmol / min μg | Activity F161A (atATC-F161A [1]; 0.4 mM UMP, [CP] 2.50 mM): 55.88 nmol / min μg and 59.00 nmol / min μg and 63.38 nmol / min μg | inhibition of enzyme activity by UMP (atATC-F161A [1]; F161A): not inhibited | N, number of binding sites per protein trimer according to the ligand binding model (atATC WT:PALA): 2 | -TΔS Site 2 (atATC WT:PALA): -8.5 kcal/mol | ΔG Site 2 (atATC WT:PALA): -8.1 kcal/mol | ΔH Site 2 (atATC WT:PALA): 0.4 kcal/mol | -TΔS Site 3 (atATC WT:PALA): -8.5 kcal/mol | ΔG Site 3 (atATC WT:PALA): -8.1 kcal/mol | ΔH Site 3 (atATC WT:PALA): 0.4 kcal/mol | Kd (atATC WT:PALA): 1.2 µM
